Two compounds from patent US20240199624A1, “COMPOUNDS, COMPOSITIONS, AND METHODS” (CHDI Foundation, Inc., priority 2022, published 2024) can be followed below.

Holding throughout (format): biochemical
For experiment [1], the target named is T1, human MutSbeta (Homo sapiens, UniProt P20585+P43246).
T1 construct: Msh2(1-934), Gene ID NP_000242.1; Msh3(1-1137), Gene ID J04810.1
Description: P33 SPA. The note with it: ATP added to compounds first, then enzyme with DNA; 2 μM ATP, 7 nM enzyme, 60 min 37° C. Here is the method: (§1) P33 SPA: Enzyme human MutSbeta (Msh2(1-934), Gene ID NP_000242.1, Msh3(1-1137), Gene ID J04810.1) and 22 bp biotin-labeled DNA containing a GT-mismatch (purchased from Curia Global, TOP 5′-[…]-3′; BOT 3′-AGTAGCTAGGC - - - CGAAGTCTACC-5′-Biotin) were pre-incubated at equimolar concentration for 15 min at room temperature (“RT”) in assay buffer (25 mM HEPES pH=7.5, 150 mM KCl, 2 mM MgCl2, 2 mM GSH, 0.01% Tween-20). ATP (10 μL, 2× final concentration of γ-[^33P]-ATP (final 0.1 nM; Hartmann Analytic, FF-301) and cold ATP (final 2 μM)) was added to compounds (400 nL spotted as concentration response in 100% DMSO into wells of an OptiPlate) and pre-incubated for 30 min at RT. Then, enzyme with DNA was added (10 μL, 2× final concentration of 7 nM) and incubated for 60 min at 37° C. in a total volume of 20 μL per well. Decay of [^33P] with a half-life of 25.4 days was corrected by increasing the concentration of the labelled nucleotide with the appropriate factor; all steps with radioactive ATP were conducted behind appropriate shielding. Then, 20 μL of a 1:2 mix of ammonium molybdate (20 mg/mL Ammonium molybdate in 2.4 M HCl) and SPA beads (ProteinA SPA beads from Perkin Elmer Cat #RPNQ0019 at 7.5 mg/mL+1% azide) was added per well and incubated at RT for 2 min. Then, 40 μL of 7 M CsCl and 0.1 M citrate was added per well and incubated for 20 h at RT before measuring on the MicroBeta (top read mode, 1 min per well). For full plate processing, all reagents were transferred with a pipettor (Selma, CyBio) apart from the final reagent (CsCl+citrate) which was added with a dispenser (MultiFlo, BioTek). Data analysis during assay development was done with Prism GraphPad.

Experiment [2] concerns the target T1, human MutSbeta. Description: P33 SPA 1.1. Particulars: Table 5A; enzyme first added to compounds, then ATP. Here is the method:
as §1
P33 SPA 11: For the SPA 1.1 assay, the addition of reagents was reversed, i.e. enzyme was first added to the compounds and pre-incubated followed by ATP addition; thus, the assay was aligned with ADP Glo 1.1 reagent addition order. The assay was repeated under similar conditions, and the results are shown below in Table 5B. It is contemplated the solubility of the compounds and/or varying test occasions may account for variability of assay results.

Experiment [3] has as its target T1, human MutSbeta. Description: ADP Glo assay 2.1. Particulars: 10 μM ATP, 7 nM enzyme; buffer with 5 mM GSH, 0.2% Ovalbumin. Here is the method: (§2) ADP Glo assay 2.1: Enzyme human MutSbeta (Msh2(1-934), Gene ID NP_000242.1, Msh3(1-1137), Gene ID J04810.1) with 22 bp biotin-labeled DNA containing a GT-mismatch (purchased from Curia Global, TOP 5′-[…]-3′; BOT 3′-AGTAGCTAGGC - - - CGAAGTCTACC-5′-Biotin) was pre-incubated in assay buffer (25 mM HEPES pH=7.5, 150 mM KCl, 5 mM MgCl2, 5 mM GSH, 0.1% Pluronic F-127, 0.2% Ovalbumin) to allow formation of the enzyme-DNA complex. Plates with spotted compounds in serial dilutions in DMSO (80 nL) were filled with ATP (2 μL, 10 μM final concentration) followed by an incubation of 30 min at RT. Then, enzyme was added (2 μL, 7 nM final concentration) and the reaction was allowed to proceed for 60 min at 37° C. After the ATPase reaction, the commercially available “ADP-Glo Reagent” was added (incubate 40 min at RT) to deplete remaining ATP via the activity of […]. Subsequently, the commercially available “Kinase Detection Reagent” converted ADP to ATP via the activity of PEP and Pyruvate kinase. The ATP was then converted into light by Ultra-Glo Luciferase. The obtained luminescence was proportional to the ADP concentration generated during the initial ATPase reaction. The luminescence signal was measured with an Envision reader, raw data were analyzed towards controls (full reaction=0% inhibition; no reaction in absence of enzyme=100% inhibition) and IC50 curves were analyzed with the inhouse software Aplus.
In general terms: ADP-Glo turns the ADP formed in a reaction into a luminescent signal.

The next experiment concerns the target T2, human MutSα (Homo sapiens, UniProt P43246+P52701).
T2 construct: Msh2(1-934), Gene ID NP_000242.1; Msh6(1-1360), Gene ID NP_001393725.1
Kind of experiment: ADP Glo assay with MutSα (2.1). Particulars: 15 nM MutSα/DNA, 30 μM ATP. As to the method:
as §2
ADP Glo assay with MutSα (2.1): The ADP Glo assay version 2.1 with the enzyme human MutSα (Msh2(1-934), Gene ID NP_000242.1, Msh6(1-1360), Gene ID NP_001393725.1) was based on the same principle and protocol steps as the MutSβ assay. A 22 bp biotin-labeled DNA containing a GT-mismatch (purchased from Curia Global, TOP 5′-[…]-3′; BOT 3′-AGTAGCTAGGC - - - CGAAGTCTACC-5′-Biotin) was used for binding to MutSα. For this assay, concentrations of enzyme and ATP were optimized to 15 nM MutSα/DNA and 30 μM ATP.

As a reminder, the IC50 is the concentration that inhibits the measured activity by half. A lower IC50 goes with greater potency.

T1 sequence (P43246 whole entry): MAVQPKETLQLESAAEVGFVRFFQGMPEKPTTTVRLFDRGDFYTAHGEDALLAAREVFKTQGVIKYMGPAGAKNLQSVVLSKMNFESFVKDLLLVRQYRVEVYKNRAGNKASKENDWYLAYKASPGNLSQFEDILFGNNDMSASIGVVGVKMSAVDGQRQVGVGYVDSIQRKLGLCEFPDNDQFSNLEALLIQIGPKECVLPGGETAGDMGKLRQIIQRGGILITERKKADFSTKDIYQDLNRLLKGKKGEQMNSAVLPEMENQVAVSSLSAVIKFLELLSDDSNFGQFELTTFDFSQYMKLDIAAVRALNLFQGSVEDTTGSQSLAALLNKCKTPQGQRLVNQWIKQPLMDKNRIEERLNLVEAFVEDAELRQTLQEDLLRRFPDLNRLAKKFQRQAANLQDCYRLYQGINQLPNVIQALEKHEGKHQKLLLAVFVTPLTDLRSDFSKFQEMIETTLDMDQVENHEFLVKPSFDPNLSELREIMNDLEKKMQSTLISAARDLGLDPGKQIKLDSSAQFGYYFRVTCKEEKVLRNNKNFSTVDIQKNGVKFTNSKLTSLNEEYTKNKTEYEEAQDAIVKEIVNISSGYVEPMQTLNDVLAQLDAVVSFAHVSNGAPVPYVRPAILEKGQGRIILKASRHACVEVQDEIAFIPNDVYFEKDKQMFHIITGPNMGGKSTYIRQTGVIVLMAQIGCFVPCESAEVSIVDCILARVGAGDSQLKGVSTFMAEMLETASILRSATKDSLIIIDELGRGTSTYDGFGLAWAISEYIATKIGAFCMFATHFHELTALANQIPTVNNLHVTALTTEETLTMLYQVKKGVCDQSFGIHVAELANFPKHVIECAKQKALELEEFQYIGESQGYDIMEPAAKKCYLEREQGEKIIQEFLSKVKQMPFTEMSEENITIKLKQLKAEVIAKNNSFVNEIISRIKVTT
T1 sequence (P20585 whole entry): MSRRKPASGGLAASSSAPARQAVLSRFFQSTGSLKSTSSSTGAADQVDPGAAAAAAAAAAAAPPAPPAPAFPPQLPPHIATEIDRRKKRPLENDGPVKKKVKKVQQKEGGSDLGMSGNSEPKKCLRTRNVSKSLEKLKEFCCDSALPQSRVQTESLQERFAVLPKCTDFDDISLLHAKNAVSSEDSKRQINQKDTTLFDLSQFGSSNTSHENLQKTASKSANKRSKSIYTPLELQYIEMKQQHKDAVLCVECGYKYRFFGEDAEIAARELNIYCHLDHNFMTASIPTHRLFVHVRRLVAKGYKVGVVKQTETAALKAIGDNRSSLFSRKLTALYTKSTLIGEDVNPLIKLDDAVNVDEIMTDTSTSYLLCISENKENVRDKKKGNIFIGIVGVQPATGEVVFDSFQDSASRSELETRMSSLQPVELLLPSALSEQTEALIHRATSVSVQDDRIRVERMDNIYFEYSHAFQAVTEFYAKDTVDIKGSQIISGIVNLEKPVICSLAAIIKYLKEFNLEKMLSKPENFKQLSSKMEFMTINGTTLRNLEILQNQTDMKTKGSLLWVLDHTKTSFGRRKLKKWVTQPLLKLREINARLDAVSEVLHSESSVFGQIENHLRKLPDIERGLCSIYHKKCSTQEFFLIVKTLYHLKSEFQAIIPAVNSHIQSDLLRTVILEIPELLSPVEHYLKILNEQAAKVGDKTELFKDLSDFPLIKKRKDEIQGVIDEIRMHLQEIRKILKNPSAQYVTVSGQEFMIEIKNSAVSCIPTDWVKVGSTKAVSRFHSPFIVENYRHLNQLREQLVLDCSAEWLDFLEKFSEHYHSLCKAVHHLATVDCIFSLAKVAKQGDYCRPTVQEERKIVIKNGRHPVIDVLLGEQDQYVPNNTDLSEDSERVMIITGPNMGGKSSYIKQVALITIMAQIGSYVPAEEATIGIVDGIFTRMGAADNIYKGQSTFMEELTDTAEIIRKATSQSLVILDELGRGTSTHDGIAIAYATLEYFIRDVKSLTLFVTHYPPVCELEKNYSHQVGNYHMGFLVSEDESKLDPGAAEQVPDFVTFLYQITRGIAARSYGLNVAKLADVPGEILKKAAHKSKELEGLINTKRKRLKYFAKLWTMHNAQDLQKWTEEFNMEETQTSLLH
T2 sequence (P43246 whole entry): as the sequence (P43246 whole entry) above
T2 sequence (P52701 whole entry): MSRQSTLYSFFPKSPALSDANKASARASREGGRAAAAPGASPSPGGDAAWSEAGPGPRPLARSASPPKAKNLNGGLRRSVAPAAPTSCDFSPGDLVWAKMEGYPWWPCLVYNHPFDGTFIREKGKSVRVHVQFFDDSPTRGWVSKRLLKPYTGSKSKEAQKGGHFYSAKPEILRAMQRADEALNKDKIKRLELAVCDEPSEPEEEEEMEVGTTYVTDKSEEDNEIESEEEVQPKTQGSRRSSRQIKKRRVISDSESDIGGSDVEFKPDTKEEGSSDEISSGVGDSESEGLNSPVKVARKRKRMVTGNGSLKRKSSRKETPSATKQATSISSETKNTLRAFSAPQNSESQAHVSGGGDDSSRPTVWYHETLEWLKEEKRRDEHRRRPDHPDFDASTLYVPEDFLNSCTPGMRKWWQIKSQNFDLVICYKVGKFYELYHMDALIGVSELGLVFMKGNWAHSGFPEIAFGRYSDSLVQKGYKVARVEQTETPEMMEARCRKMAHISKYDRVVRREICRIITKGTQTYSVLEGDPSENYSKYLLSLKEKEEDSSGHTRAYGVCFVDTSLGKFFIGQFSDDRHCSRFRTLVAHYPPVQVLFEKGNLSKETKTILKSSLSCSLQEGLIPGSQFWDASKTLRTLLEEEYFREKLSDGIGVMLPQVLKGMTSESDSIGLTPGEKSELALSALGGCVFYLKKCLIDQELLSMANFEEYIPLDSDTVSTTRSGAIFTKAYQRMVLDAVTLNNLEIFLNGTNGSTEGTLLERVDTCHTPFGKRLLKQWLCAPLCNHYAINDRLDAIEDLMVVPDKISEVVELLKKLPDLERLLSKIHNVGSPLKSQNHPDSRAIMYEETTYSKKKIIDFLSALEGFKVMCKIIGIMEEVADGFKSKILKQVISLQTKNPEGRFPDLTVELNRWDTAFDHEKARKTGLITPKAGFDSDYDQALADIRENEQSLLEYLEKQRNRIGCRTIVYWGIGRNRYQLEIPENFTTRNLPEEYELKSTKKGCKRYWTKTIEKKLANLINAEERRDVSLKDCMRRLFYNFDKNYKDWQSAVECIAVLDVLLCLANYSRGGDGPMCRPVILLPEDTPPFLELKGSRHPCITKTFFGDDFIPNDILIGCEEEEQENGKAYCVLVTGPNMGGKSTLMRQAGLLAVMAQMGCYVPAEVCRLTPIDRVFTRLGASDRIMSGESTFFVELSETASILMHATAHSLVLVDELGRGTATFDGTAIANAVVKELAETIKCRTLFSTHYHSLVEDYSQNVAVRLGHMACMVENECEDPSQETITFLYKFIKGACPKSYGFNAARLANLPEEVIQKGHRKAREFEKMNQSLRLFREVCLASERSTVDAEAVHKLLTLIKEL

In the case of `CCN1CCN(c2nc(Nc3ccc(Cl)cc3)c3nccnc3n2)CC1` [Compound 4, N-(4-Chlorophenyl)-2-(4-ethylpiperazin-1-yl)pteridin-4-amine], the half-maximal inhibitory concentration (IC50) on human MutSbeta [1] was found to be 23.8 µM; at human MutSbeta [2], 40.5 µM; against human MutSbeta [3] it was 152 µM; against human MutSα it was 121 µM.
In the case of `Cc1ccc(Nc2nc(N3CCN(C)CC3)nc3nccnc23)cc1C` [Compound 2, N-(3,4-dimethylphenyl)-2-(4-methylpiperazin-1-yl)pteridin-4-amine], the half-inhibitory concentration (IC50) was 28.6 µM on human MutSbeta [1], 55.9 µM on human MutSbeta [2], 67.3 µM on human MutSbeta [3] and 135 µM against human MutSα.
